# From patent publication US20070031511A1, “Method of treatment” (priority 2003, published 2007)
# Like-named read-outs stand apart in the source and are kept apart here. Where a SMILES comes first, the peptide text is derived from it. Where no end group is shown, it is not given here. [ ]: non-standard residue; d: D form. pGlu = O=C1CC[C@@H](C(=O)O)N1
# Tests used:
# [1] = Quenching of peptide tryptophan fluorescence by ferric ions (stoichiometry, apparent Kd); format: binding; settings: 10 mM sodium acetate pH 4.0, 100 mM NaCl, 0.005% Tween 20; mean ± S.E.; read-out: Kd (μM), apparent dissociation constant for ferric ions
# Procedure: The tryptophan fluorescence of peptide solutions was measured in 3 mL quartz cuvettes thermostated at […], with a Spex Fluorolog-2 spectrofluorimeter (Spex Industries, Edison, N.J.), with the excitation and emission wavelengths set at 290 and 345 nm, respectively. The quenching of tryptophan fluorescence induced by the binding of metal ions was used to calculate the fraction of binding sites occupied, fa: fa=(yf−y)/(yf−yb) where y is the fluorescence signal at a given concentration of metal ions and yb and yf are the signals when the binding sites are fully occupied and unoccupied, respectively (Winzor et al, 1995). The stoichiometry, p, and apparent dissociation constant, Kd, were then obtained, using the program Sigmastat (Jandel Scientific, San Rafael, Calif.), from the intercept and slope of a linear regression of the data transformed as described by Winzor and Sawyer (1995) in terms of the equation Cs/fa=pCa+Kd/(1−fa) where Cs is the total concentration of metal ions, and Ca is the total concentration of glycine-extended gastrin17. For the bismuth binding studies, the data was fitted by non-linear regression with the program Sigmaplot (Jandel Scientific, San Rafael, Calif.) to the equations for models with one binding site or two binding sites with identical affinities: fa=x/(Kd1+x) or to the model with two binding sites with different affinities: fa=(Kd1·x+Kd2·x+2x^2)/2(Kd1·Kd2+Kd1·x+Kd2·x+x^2) where x is the concentration of free metal ions, Kd1 is the first site dissociation constant and Kd2 is the second site dissociation constant. For the one-site model the value of x at any given total concentration of metal ions was obtained by exact solution of the appropriate quadratic (Malby et al, 2001). For the two-site models the value of x was obtained by an iterative Newton-Raphson procedure (Linse et al, 1991). Absorption Spectroscopy
# The tryptophan fluorescence of progastrin6-80, glycine-extended gastrin17 and related peptides was measured in the presence of increasing concentrations of ferric ions in 10 mM sodium acetate, pH 4.0, 100 mM NaCl, 0.005% Tween 20. […] Values from the indicated number of independent experiments were combined to obtain the mean values (±S.E.) presented above. No binding of ferric ions to Ggly1-4 or Ggly12-18 was observed.
# The tryptophan fluorescence of amidated gastrin17 and related peptides was measured in the presence of increasing concentrations of ferric ions at pH 4.0 (8). Values of the stoichiometry and the apparent dissociation constant (Kd) were obtained from linear transformations of the data presented in FIG. 20A by least squares fitting. Values from the indicated number of independent experiments were combined to obtain the mean values (±S.E.) presented above.
# IMGE-5 cells [2] = assay: Wound healing / cell migration assay; format: cell-based, mice; settings: wound healing assay, fragments and mutants shown at 1 nM (FIGS. 7B, 8B)
# Procedure: (§1) The IMGE-5 cell line was established from the gastric mucosa of mice transgenic for a temperature-sensitive mutant of the SV40 large T antigen (Hollande et al, 2001). IMGE-5 cells were generally grown at 33° C. in DMEM containing 1 unit/ml γ-interferon, 10% FBS, 100 U/ml penicillin, and 100 μg/ml streptomycin (permissive conditions). For all experiments, cells were transferred to 39° C. in the same medium without […] (non-permissive conditions), where they display differentiated characteristics such as expression of functional adherens and tight junctions. All experiments have been performed on cells between passages 20 and 35.
# In order to assess the effects of different stimuli on cell migration, wound healing experiments were performed as detailed elsewhere (Hollande et al, 1997). In brief, IMGE-5 cells were grown in 12-well plates in DMEM at 33° C. until they reached 80% confluence, then shifted to 39° C. and starved of serum for 24 h. The confluent monolayer was wounded using a 20 μl-pipette tip, and cells were then washed 3 times with phosphate-buffered saline (PBS: 2.7 mM KCl, 1.5 MM KH2PO4, 142 mM NaCl, and 10 mM Na2HPO4, pH 6.95) and treated with or without different compounds in DMEM with antibiotics. Morphology and migration of cells were observed and photographed immediately, and after treatment for 17 and 24 h. Wound width was measured at six different positions on the 24 h photographs, and averages calculated.
# [3] = Solubility of peptides in NMR sample preparation; format: physicochemical; settings: NMR sample conditions, pH 5.3
# Procedure: For the subsequent experiments, samples were prepared for NMR spectroscopy by dissolving 2.5 mg of peptide in 0.6 ml of 10% DMSO/10% ^2H2O/80% H2O at 278 K. The pH was adjusted with small amounts of 1M NaO^2H or ^2HCl to pH 5.3. ^1H chemical shifts were referenced to 2,2-dimethyl-2-silapenthane-5-sulfonate at 0 ppm via the chemical shift of the H2O resonance or an impurity at 0.15 ppm. NMR spectra were recorded on Bruker DRX-600 and AMX-500 instruments, as described previously (Barnham et al, 1999).
# The peptides LE5AYG, LE5A, E5AY and E5A (approximately 2 mM) were dissolved in H2O with 5 or 10% ^2H2O. […] Sequence-specific ^1H NMR resonance assignments were made from two-dimensional nuclear Overhauser enhancement spectroscopy (NOESY) and total correlation spectroscopy (TOCSY).
# IMGE-5 cells [4] = assay: IMGE-5 cell proliferation, MTT assay; format: cell-based, mice; settings: MTT assay, peptides shown at 1 nM (FIGS. 7A, 8A)
# Procedure: as §1
# A colorimetric assay was used to measure cell proliferation. Briefly, IMGE-5 cells were seeded in a 96-well plate at a density of 10^4 cells/well in DMEM containing 10% FBS and antibiotics. The following day, cells were synchronized in Go by incubation for 24 h in the same medium lacking FBS. The medium was replaced the next day with fresh medium containing 1% FBS and antibiotics and the peptides under investigation, and incubation was continued for 72 h. 15 μl of 5 mg/ml 3-(4,5-dimethylthiazol-2-yl)-2-5-diphenyltetrazolium bromide (MTT, Sigma, St Louis Mo.) was added per well, and the plate was incubated at 37° C. for 4 h before the medium was discarded. 200 μl 40 mM HCl in isopropanol was added to lyse the cells, and the absorbance at 570 nm was read on a BioRad Model 550 Microplate reader (BioRad, Hercules, Calif.).
# [5] = target: T1, recombinant human progastrin6-80 (Homo sapiens, UniProt P01350); assay: Competition of metal ions with 59Fe3+ for binding to progastrin6-80; settings: metal ions 100 μM, 59Fe3+ 10 μM, progastrin6-80 5.6 μM
# T1 construct: made in house
# T1 sequence (P01350 27-101): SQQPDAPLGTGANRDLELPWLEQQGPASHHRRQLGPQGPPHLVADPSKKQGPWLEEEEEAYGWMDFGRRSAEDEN
# Procedure: In order to determine the specificity of the interaction between progastrin and metal ions, the binding of metal ions to recombinant human progastrin6-80 was determined by measuring their ability to compete with radioactive ^59Fe^3+ for binding to the protein by the following methods (Baldwin et al, 2001).
# Progastrin6-80 (5.6 μM) in pH 2.8 buffer (10 mM sodium formate, pH 2.8, 100 mM NaCl, 0.005% Tween 20) was incubated for 30 min at 4° C. with ^59Fe^3+ ions (10 μM, 23.6 cpm/pmol) in the presence of several di- and trivalent metal ions (100 μM). Excess radioactivity was removed by overnight dialysis (SpectraPor dialysis tubing, molecular weight cut-off 3,500, Spectrum Labs., Rancho Dominguez, Calif.) at 4° C. against pH 4.0 buffer (10 mM sodium acetate, pH 4.0, 100 mM NaCl, 0.005% Tween 20), containing 1 µM EDTA. The radioactivity associated with progastrin6-80 was determined by counting aliquots of the internal and external solutions in a γ-counter (LKB-Wallac, Turku, Finland).
# [6] = read-out: Apparent first dissociation constant of complex with ferric ions, cited from earlier work
# rectal mucosa = assay: Proliferation in the rectal mucosa of rectally defunctioned rats (metaphase-arrested cells); format: in vivo; settings: infused intraperitoneally 2.5 nmol/kg/hr, 4 weeks
# Procedure: DFO (400 mg/kg) was administered intraperitoneally thrice weekly, and bismuth ions were administered as colloidal bismuth subcitrate (135 mg/kg/12 hours) by oral gavage 5 days per week. After 4 weeks, the rats were injected with vincristine to arrest cycling cells in metaphase, and sacrificed 3 hrs later. Crypt heights in the rectal mucosa, and the number of metaphase arrested cells per crypt, were then determined microscopically.
# [7] = pH 4.0; Ref. 8 given in table; read-out: Kd (μM), apparent dissociation constant for ferric ions; cited from earlier work
Kd [1] [µM],Compound,Stimulation of IMGE-5 cell migration (IMGE-5 cells [2]),Stimulation of IMGE-5 cell proliferation (IMGE-5 cells [4]),also measured
1.2 ± 0.11,CSCC[C@H](NC(=O)[C@H](Cc1c[nH]c2ccccc12)NC(=O)CNC(=O)[C@H](Cc1ccc(O)cc1)NC(=O)[C@H](C)NC(=O)[C@H](C)NC(=O)[C@H](C)NC(=O)[C@H](C)NC(=O)[C@H](C)NC(=O)[C@H](C)NC(=O)[C@H](CC(C)C)NC(=O)[C@H](Cc1c[nH]c2ccccc12)NC(=O)[C@@H]1CCCN1C(=O)CNC(=O)[C@@H]1CCC(=O)N1)C(=O)N[C@@H](CC(=O)O)C(=O)N[C@@H](Cc1ccccc1)C(=O)NCC(=O)O [GglyE6-10A] ([pGlu]GPWLAAAAAAYGWMDFG-OH),inactive,inactive,Solubility [3]: Poor solubility
0.37 ± 0.07,CSCC[C@H](NC(=O)[C@H](Cc1c[nH]c2ccccc12)NC(=O)CNC(=O)[C@H](Cc1ccc(O)cc1)NC(=O)[C@H](C)NC(=O)[C@H](C)NC(=O)[C@H](C)NC(=O)[C@H](C)NC(=O)[C@H](CCC(=O)O)NC(=O)[C@H](CCC(=O)O)NC(=O)[C@H](CC(C)C)NC(=O)[C@H](Cc1c[nH]c2ccccc12)NC(=O)[C@@H]1CCCN1C(=O)CNC(=O)[C@@H]1CCC(=O)N1)C(=O)N[C@@H](CC(=O)O)C(=O)N[C@@H](Cc1ccccc1)C(=O)NCC(=O)O [GglyE8-10A] ([pGlu]GPWLEEAAAAYGWMDFG-OH),–,"active in proliferation assays, although less so than Ggly",Solubility [3]: Poor solubility
–,[Fe+3] [ferric ions],–,–,Ability to compete with 59Fe3+ for binding to progastrin6-80 [5]: able to compete effectively
–,[Fe+2] [ferrous ions],–,–,Ability to compete with 59Fe3+ for binding to progastrin6-80 [5]: able to compete effectively
–,O=C(O)CN(CC(=O)O)CC(=O)O [nitrilotriacetic acid],–,–,Kd ([6]; pH 4.0): 830 nM; Kd ([6]; pH 7.6): 0.19 nM
0.2 ± 0.01,"GglyE7A: Ggly mutant, Glu7 replaced by Ala, SEQ ID NO:11 ([pGlu]GPWLEAEEEAYGWMDFG; ends and bridges not checked)",inactive,inactive,Stimulation of rectal mucosal proliferation (rectal mucosa): able to stimulate mucosal proliferation as well as Ggly
–,LE5AYGWMDFG (LEEEEEAYGWMDFG; listed as Homo sapiens) [Ggly5-18],to the same extent as Ggly,to the same extent as Ggly,Kd [7]: 0.58 ± 0.19 µM; Stimulation of IMGE-5 cell migration (IMGE-5 cells [2]; listed as LE5AYGWMDFG): fully active; Stimulation of IMGE-5 cell proliferation (IMGE-5 cells [4]; listed as LE5AYGWMDFG): fully active
